Values of other authors in US12138235B2, “Cape-loaded targeted microvesicular cancer drug and method for developing the same” (YEDITEPE UNIVERSITESI, priority 2017, dated 2024).

Legend:
[1] = system: MCF-7, MDA-MB-231 and TNBC breast cancer cell lines; conditions: CAPE 40 μM
breast cancer stem cells = conditions: CAPE 40 μM
[2] = system: LNCaP, DU-145 and PC-3 prostate cancer cell lines
[3] = system: ME180 cervical cancer cell lines; conditions: CAPE 50 μM
[4] = system: TW2.6 oral squamous cell carcinoma cell line; conditions: CAPE 100 μM
[5] = system: SK-1 Hep1 liver cancer cell line; conditions: combined treatment of CAPE 30 μg/ml and TRAIL
[6] = rats, prophylactic administration
[7] = rats
[8] = system: SH-SY5Y neuroblastoma cell line; conditions: CAPE 4-20 μM

O=C(/C=C/c1ccc(O)c(O)c1)OCCc1ccccc1 [CAPE, caffeic acid phenethyl ester]
cell proliferation, cell cycle arrest, apoptosis, angiogenesis [1]: dose-dependently stops cell proliferation, induces cell cycle arrest and apoptosis, and suppresses angiogenesis | proliferation of breast cancer stem cells (breast cancer stem cells): inhibits proliferation of breast cancer stem cells | cell proliferation and Akt signaling pathway [2]: dose-dependently inhibits cell proliferation | proliferation, cell cycle arrest, apoptosis [3]: prevents proliferation by inducing S and G2/M phase cell cycle arrests and induces apoptosis | cell cycle phase populations and apoptosis [4]: decreased G1 phase cell population, increased G2/M phase cell population and induced apoptosis | caspase activation, cell death receptors, apoptosis [5]: caspase activation increased, cell death receptors were activated via JNK and p38 signaling pathways and apoptosis was induced | damage caused by doxorubicin in kidney, heart and brain tissues [6]: prevented the damage | liver damage depending on administration of cisplatin and tamoxifen [6]: prevented the damage | radiation induced lung injury [7]: decreased radiation induced lung injury | effect in SH-SY5Y cells [8]: no effect was observed
